We go through 25 compounds from patent publication US10179767B2 (GENENTECH, INC., priority 2015, dated 2019).

The target in the assay is T1, hNav1.7 (Homo sapiens, UniProt Q15858).
T1 construct: expressed in transfected cells
T1 sequence (Q15858 whole entry): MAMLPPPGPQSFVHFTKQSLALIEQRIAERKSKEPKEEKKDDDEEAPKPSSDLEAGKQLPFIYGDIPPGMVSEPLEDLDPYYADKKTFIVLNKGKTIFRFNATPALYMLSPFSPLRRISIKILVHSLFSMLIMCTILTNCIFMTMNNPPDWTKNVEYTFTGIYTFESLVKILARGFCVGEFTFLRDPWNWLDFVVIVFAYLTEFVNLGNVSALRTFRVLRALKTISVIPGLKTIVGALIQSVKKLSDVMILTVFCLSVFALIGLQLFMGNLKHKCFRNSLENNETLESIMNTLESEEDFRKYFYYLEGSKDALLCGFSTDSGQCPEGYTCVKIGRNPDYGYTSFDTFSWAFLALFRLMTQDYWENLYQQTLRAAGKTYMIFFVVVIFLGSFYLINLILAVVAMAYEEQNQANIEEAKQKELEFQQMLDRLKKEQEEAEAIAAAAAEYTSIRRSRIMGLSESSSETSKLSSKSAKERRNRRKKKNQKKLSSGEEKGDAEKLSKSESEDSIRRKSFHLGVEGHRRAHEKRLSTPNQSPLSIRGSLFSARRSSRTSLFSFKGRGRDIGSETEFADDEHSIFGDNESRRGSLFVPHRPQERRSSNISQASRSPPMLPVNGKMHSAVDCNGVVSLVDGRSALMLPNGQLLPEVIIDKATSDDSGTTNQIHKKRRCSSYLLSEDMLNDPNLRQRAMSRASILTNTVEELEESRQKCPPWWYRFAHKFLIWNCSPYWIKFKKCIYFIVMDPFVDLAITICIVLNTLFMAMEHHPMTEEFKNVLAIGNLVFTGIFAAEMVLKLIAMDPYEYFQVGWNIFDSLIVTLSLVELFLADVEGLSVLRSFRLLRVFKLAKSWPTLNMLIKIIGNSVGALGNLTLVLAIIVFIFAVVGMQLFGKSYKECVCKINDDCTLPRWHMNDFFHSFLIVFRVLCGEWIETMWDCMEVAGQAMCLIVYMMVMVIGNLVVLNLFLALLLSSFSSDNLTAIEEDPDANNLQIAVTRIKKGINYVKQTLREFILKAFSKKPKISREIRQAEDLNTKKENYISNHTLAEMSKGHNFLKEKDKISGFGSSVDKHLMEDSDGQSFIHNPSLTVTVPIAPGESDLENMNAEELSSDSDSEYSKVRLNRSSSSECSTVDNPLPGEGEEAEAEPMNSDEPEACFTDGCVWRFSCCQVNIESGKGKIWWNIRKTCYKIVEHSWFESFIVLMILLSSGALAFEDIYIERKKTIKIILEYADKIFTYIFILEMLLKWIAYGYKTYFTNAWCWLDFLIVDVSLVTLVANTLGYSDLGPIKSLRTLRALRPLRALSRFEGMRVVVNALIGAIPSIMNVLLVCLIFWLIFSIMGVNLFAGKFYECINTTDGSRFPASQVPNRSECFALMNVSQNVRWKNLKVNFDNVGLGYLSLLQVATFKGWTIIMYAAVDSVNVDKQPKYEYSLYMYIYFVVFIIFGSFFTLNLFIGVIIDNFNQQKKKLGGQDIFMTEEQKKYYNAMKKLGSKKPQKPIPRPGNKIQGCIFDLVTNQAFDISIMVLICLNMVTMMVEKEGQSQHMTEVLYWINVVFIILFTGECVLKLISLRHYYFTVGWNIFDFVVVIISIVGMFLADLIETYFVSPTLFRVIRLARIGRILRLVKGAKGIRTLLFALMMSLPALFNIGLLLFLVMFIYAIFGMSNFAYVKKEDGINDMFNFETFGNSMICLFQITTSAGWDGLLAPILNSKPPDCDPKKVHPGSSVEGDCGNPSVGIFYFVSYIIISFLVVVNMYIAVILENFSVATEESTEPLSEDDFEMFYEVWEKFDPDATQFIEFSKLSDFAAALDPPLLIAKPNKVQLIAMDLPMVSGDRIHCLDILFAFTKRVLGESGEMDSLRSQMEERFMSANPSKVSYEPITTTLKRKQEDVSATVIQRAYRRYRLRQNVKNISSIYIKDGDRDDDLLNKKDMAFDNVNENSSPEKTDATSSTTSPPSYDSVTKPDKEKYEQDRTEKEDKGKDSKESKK
T1 sequence (Q07699 19-218 partner): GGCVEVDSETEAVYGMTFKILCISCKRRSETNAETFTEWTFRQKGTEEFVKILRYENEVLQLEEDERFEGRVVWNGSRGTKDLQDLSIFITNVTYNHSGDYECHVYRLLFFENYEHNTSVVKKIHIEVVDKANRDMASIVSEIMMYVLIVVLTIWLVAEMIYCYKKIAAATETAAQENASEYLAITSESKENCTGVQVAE
The assay can be described thus: Tritiated sulfonamide binding to membranes from cells expressing hNav1.7 and the β1 subunit (Nav 1.7 ligand binding assay, competitive). The note with it: competition with 100 pM [3H]compound, room temperature, 18 h. Here is the method:
Tritiated Sulfonamide Binding to Membranes Isolated from Cells that Heterologously Express hNav1.7 and the β1 Subunit
Preparation of membranes containing recombinantly expressed sodium channels: Frozen recombinant cell pellets were thawed on ice and diluted to 4 times the cell pellet weight with ice cold 50 mM Tris HCl, pH 7.4 buffer. The cell suspensions were homogenized on ice using a motorized glass dounce homogeniser. Homogenates were further diluted 8.4 times with ice cold 50 mM Tris HCl, pH 7.4 buffer and then centrifuged at 200×g at 4° C. for 15 min. The supernatants were collected and centrifuged at 10000×g at 4° C. for 50 min. The pellets were then re-suspended in 100 mM NaCl, 20 mM Tris HCl, pH 7.4 buffer containing 1% v/v protease inhibitors (Calbiochem) and re-homogenized on ice. The homogenized membranes were then processed through a syringe equipped with a 26 gauge needle. Protein concentrations were determined by Bradford Assay and the membranes were stored at −80° C.
Radioligand Binding Studies:
Saturation experiments. A competitive NaV1.7 inhibitor having a methyl group was tritiated. Three tritiums were incorporated in place of methyl hydrogens to generate [^3H]compound. Binding of this radioligand was preformed in 5 mL borosilicate glass test tubes at room temperature. Binding was initiated by adding membranes to increasing concentrations of [^3H]compound in 100 mM NaCl, 20 mM Tris HCl, pH 7.4 buffer containing 0.01% w/v bovine serum albumin (BSA) for 18 h. Non-specific binding was determined in the presence of 1 μM unlabelled compound. After 18 h, the reactants were filtered through GF/C glass fiber filters presoaked in 0.5% w/v polyethylene imine Filters were washed with 15 mL ice cold 100 mM NaCl, 20 mM Tris HCl, pH7.4 buffer containing 0.25% BSA to separate bound from free ligand. [^3H]compound bound to filters was quantified by liquid scintillation counting.
Competitive Binding Experiments:
Binding reactions were preformed in 96-well polypropylene plates at room temperature for 18 h. In 360 μL, membranes were incubated with 100 pM [^3H]compound and increasing concentrations of Test Compound. Non-specific binding was defined in the presence of 1 μM unlabelled compound. Reactions were transferred and filtered through 96-well glass fiber/C filter plates presoaked with 0.5% polyethylene imine. The filtered reactions were washed 5 times with 200 μL ice cold buffer containing 0.25% BSA. Bound radioactivity was determined by liquid scintillation counting. Data Analysis: For saturation experiments, non-specific binding was subtracted from total binding to provide specific binding and these values were recalculated in terms of pmol ligand bound per mg protein. Saturation curves were constructed and dissociation constants were calculated using the single site ligand binding model: Beq=(Bmax*X)/(X+Kd), where Beq is the amount of ligand bound at equilibrium, Bmax is the maximum receptor density, Kd is the dissociation constant for the ligand, and X is the free ligand concentration. For competition studies percent inhibition was determined and IC50 values were calculated using a 4 parameter logistic model (% inhibition=(A+((B−A)/(1+((x/C)⨣D)))) using XLfit, where A and B are the maximal and minimum inhibition respectively, C is the IC50 concentration and D is the (Hill) slope.
Take `CCS(=O)(=O)NC(=O)c1cc(C2CC2)c(OCC2CCN([C@H](C)c3cc(Cl)cc(Cl)c3F)CC2)cc1F` (single isomer, unassigned) [Example 33]: the IC50 stood at 2.4 nM.
In the case of `CS(=O)(=O)NC(=O)c1cc(C2CC2)c(OCC2CCN([C@H](c3cc(Cl)cc(Cl)c3)C3COC3)CC2)cc1F` (single isomer, unassigned) [Example 34], the IC50 is 9.9 nM.
On to `CS(=O)(=O)NC(=O)c1cc(C2CC2)c(OCC2CCN([C@@H](c3cc(Cl)cc(Cl)c3)C3COC3)CC2)cc1F` (single isomer, unassigned) [Example 35], for which the half-maximal inhibitory concentration (IC50) came to 8.2 nM.
In turn, `C[C@@H](c1ccc(F)c(Cl)c1)N1CCC(COc2cc(F)c(C(=O)NS(C)(=O)=O)cc2C2CC2)CC1` (single isomer, unassigned) [Example 36] registered an IC50 of 6 nM.
In turn, `C[C@H](c1cc(Cl)c(F)c(Cl)c1)N1CCC(COc2cc(F)c(C(=O)NS(C)(=O)=O)cc2C2CC2)CC1` (single isomer, unassigned) [Example 37] showed an IC50 of 3 nM.
In the case of `C[C@@H](c1cc(Cl)c(F)c(Cl)c1)N1CCC(COc2cc(F)c(C(=O)NS(C)(=O)=O)cc2C2CC2)CC1` (single isomer, unassigned) [Example 38] it was 3.1 nM; in that of `C[C@H](c1ccc(Cl)c(F)c1)N1CCC(COc2cc(F)c(C(=O)NS(C)(=O)=O)cc2C2CC2)CC1` (single isomer, unassigned) [Example 39], 4.6 nM; in that of `C[C@@H](c1ccc(Cl)c(F)c1)N1CCC(COc2cc(F)c(C(=O)NS(C)(=O)=O)cc2C2CC2)CC1` (single isomer, unassigned) [Example 40], 6.6 nM.
Compound `CS(=O)(=O)NC(=O)c1cc(C2CC2)c(OCC2CCN(Cc3cc(C(F)(F)F)cc(Cl)c3C#N)CC2)cc1F` [Example 3, 4-((1-(3-chloro-2-cyano-5-(trifluoromethyl)benzyl)piperidin-4-yl)methoxy)-5-cyclopropyl-2-fluoro-N-(methylsulfonyl)benzamide] gave an IC50 of 4.5 nM.
The result for `CS(=O)(=O)NC(=O)c1cc(C2CC2)c(OCC2CCN(Cc3cc(Cl)cc(C(F)(F)F)c3C#N)CC2)cc1F` [Example 4, 4-((1-(5-Chloro-2-cyano-3-(trifluoromethyl)benzyl)piperidin-4-yl)methoxy)-5-cyclopropyl-2-fluoro-N-(methylsulfonyl)benzamide] reads 6.6 nM; that for `CS(=O)(=O)NC(=O)c1cc(C2CC2)c(OCC2(O)CCN(Cc3cc(Cl)cc(Cl)c3)CC2)cc1F` [Example 6, 5-Cyclopropyl-4-((1-(3,5-dichlorobenzyl)-4-hydroxypiperidin-4-yl)methoxy)-2-fluoro-N-(methylsulfonyl)benzamide], 10 nM; that for `COC1(COc2cc(F)c(C(=O)NS(C)(=O)=O)cc2C2CC2)CCN(Cc2cc(C(F)(F)F)cc(Cl)c2F)CC1` [Example 7, 4-((1-(3-Chloro-2-fluoro-5-(trifluoromethyl)benzyl)-4-methoxypiperidin-4-yl)methoxy)-5-cyclopropyl-2-fluoro-N-(methylsulfonyl)benzamide], 7.9 nM.
For the compound `COC1(COc2cc(F)c(C(=O)NS(=O)(=O)C3CC3)cc2C2CC2)CCN(Cc2cc(Cl)cc(Cl)c2)CC1` [Example 9, 5-Cyclopropyl-N-(cyclopropylsulfonyl)-4-((1-(3,5-dichlorobenzyl)-4-methoxypiperidin-4-yl)methoxy)-2-fluorobenzamide], the IC50 was found to be 5.7 nM.
The result for `CCS(=O)(=O)NC(=O)c1cc(C2CC2)c(OCC2(OC)CCN(Cc3cc(Cl)cc(Cl)c3)CC2)cc1F` [Example 10, 5-Cyclopropyl-4-((1-(3,5-dichlorobenzyl)-4-methoxypiperidin-4-yl)methoxy)-N-(ethylsulfonyl)-2-fluorobenzamide] reads 9 nM; that for `CCS(=O)(=O)NC(=O)c1cc(C2CC2)c(OCC2CCN(Cc3cc(Cl)cc(Cl)c3OC)CC2)cc1F` [Example 13, 5-Cyclopropyl-4-((1-(3,5-dichloro-2-methoxybenzyl)piperidin-4-yl)methoxy)-N-(ethylsulfonyl)-2-fluorobenzamide], 4.1 nM.
`COc1c(Cl)cc(Cl)cc1CN1CCC(COc2cc(F)c(C(=O)NS(C)(=O)=O)cc2C2CC2)CC1` [Example 14, 5-Cyclopropyl-4-((1-(3,5-dichloro-2-methoxybenzyl)piperidin-4-yl)methoxy)-2-fluoro-N-(methylsulfonyl)benzamide] gave an IC50 of 6.5 nM.
Compound `N#Cc1c(Cl)cc(Cl)cc1CN1CCC(COc2cc(F)c(C(=O)NS(=O)(=O)C3CC3)cc2C2CC2)CC1` [Example 17, 5-Cyclopropyl-N-(cyclopropylsulfonyl)-4-((1-(3,5-dichloro-2-cyanobenzyl)piperidin-4-yl)methoxy)-2-fluorobenzamide] gave an IC50 of 5.9 nM.
`CS(=O)(=O)NC(=O)c1cc(C2CC2)c(OCC2(F)CCN(Cc3ccc(Cl)cc3Cl)CC2)cc1F` [Example 20, 5-Cyclopropyl-4-((1-(2,4-dichlorobenzyl)-4-fluoropiperidin-4-yl)methoxy)-2-fluoro-N-(methylsulfonyl)benzamide] returned an IC50 of 3.5 nM.
For the compound `COCC(c1cc(Cl)cc(Cl)c1F)N1CCC(COc2cc(F)c(C(=O)NS(C)(=O)=O)cc2C2CC2)CC1` (stereo not shown) [Example 21, 5-cyclopropyl-4-((1-(1-(3,5-dichloro-2-fluorophenyl)-2-methoxyethyl)piperidin-4-yl)methoxy)-2-fluoro-N-(methylsulfonyl)benzamide], the IC50 came to 4.4 nM.
The compound `CS(=O)(=O)NC(=O)c1cc(C2CC2)c(OCC2CCN(Cc3cc(Cl)cc(OC4CC4)c3)CC2)cc1F` [Example 28, 4-((1-(3-Chloro-5-cyclopropoxybenzyl)piperidin-4-yl)methoxy)-5-cyclopropyl-2-fluoro-N-(methylsulfonyl)benzamide] yielded an IC50 of 6 nM.
The result for `CS(=O)(=O)NC(=O)c1cc(C2CC2)c(OCC2(F)CCN(Cc3ccc(F)cc3Cl)CC2)cc1F` [Example 29, 4-((1-(2-Chloro-4-fluorobenzyl)-4-fluoropiperidin-4-yl)methoxy)-5-cyclopropyl-2-fluoro-N-(methylsulfonyl)benzamide] reads 4.2 nM; that for `CS(=O)(=O)NC(=O)c1cc(C2CC2)c(OCC2(F)CCN(Cc3cc(F)cc(Cl)c3)CC2)cc1F` [Example 30, 4-((1-(3-Chloro-5-fluorobenzyl)-4-fluoropiperidin-4-yl)methoxy)-5-cyclopropyl-2-fluoro-N-(methylsulfonyl)benzamide], 4.9 nM.
As for `CS(=O)(=O)NC(=O)c1cc(C2CC2)c(OCC2(F)CCN(Cc3ccc(F)c(Cl)c3)CC2)cc1F` [Example 31, 4-((1-(3-Chloro-4-fluorobenzyl)-4-fluoropiperidin-4-yl)methoxy)-5-cyclopropyl-2-fluoro-N-(methylsulfonyl)benzamide], the IC50 stood at 5.3 nM.
`O=C(NS(=O)(=O)N1CCC1)c1cc(C2CC2)c(O[C@H]2CCCN(Cc3ccc(F)cc3Cl)C2)cc1F` [Example 41, (S)—N-(azetidin-1-ylsulfonyl)-4-((1-(2-chloro-4-fluorobenzyl)piperidin-3-yl)oxy)-5-cyclopropyl-2-fluorobenzamide] displayed an IC50 of 140 nM.
As for `CS(=O)(=O)NC(=O)c1cc(C2CC2)c(OCC2(F)CCN(Cc3ncc(C(F)(F)F)cc3Cl)CC2)cc1F` [Example 42, 4-((1-((3-chloro-5-(trifluoromethyl)pyridin-2-yl)methyl)-4-fluoropiperidin-4-yl)methoxy)-5-cyclopropyl-2-fluoro-N-(methylsulfonyl)benzamide], the IC50 was 19 nM.
